± gives the standard deviation of the reports.
Row | SMILES | glass transition temperature
1 | *c1ccc(C(c2ccc(N3C(=O)c4ccc(-c5ccc6c(c5)C(=O)N(*)C6=O)cc4C3=O)cc2)(C(F)(F)F)C(F)(F)F)cc1 (repeat unit) | 343.00 °C
2 | *c1ccc(C2C3C(=O)N(c4ccc(N5C(=O)C6ON(C)C(*)C6C5=O)cc4)C(=O)C3ON2C)cc1 (repeat unit) | 67.00 °C
3 | *c1ccc2c(c1)C(=O)N(c1cccc(S(=O)(=O)c3cccc(N4C(=O)c5ccc(C(*)(C(F)(F)F)C(F)(F)F)cc5C4=O)c3)c1)C2=O (repeat unit) | 275.00 ± 5.7 °C
4 | *CC(*)(C)C(=O)NC1C(O)OC(CO)C(O)C1O (repeat unit) | 90.50 °C
5 | *c1ccc(Oc2ccc(C(=O)c3ccc(C(=O)c4ccc(C(=O)c5ccc(Oc6ccc(-c7nc(-c8ccccc8)[nH]c7*)cc6)cc5)cc4)cc3)cc2)cc1 (repeat unit) | 239.00 °C
6 | *Oc1ccc(C2(c3ccc(OC(*)=O)c(C)c3)CC3CCC2C3)cc1C (repeat unit) | 161.00 °C
7 | *CCCCCCn1ccc(-c2ccc(-c3ccn(*)n3)cc2)n1 (repeat unit) | 55.00 °C
8 | *CCCCCCc1ccc(-c2c(-c3ccccc3)cc(-c3ccc(-c4cc(-c5ccccc5)c(-c5ccc(*)cc5)c(-c5ccccc5)c4-c4ccccc4)cc3)c(-c3ccccc3)c2-c2ccccc2)cc1 (repeat unit) | 250.00 °C
9 | *O[Si](C)(C)c1c(F)c(F)c(F)c([Si](*)(C)C)c1F (repeat unit) | -28.50 °C
10 | */C=C/C(C(=O)OCC)C(*)C(=O)OCC (repeat unit) | 6.00 °C
11 | *CC(CS(C)(=O)=O)O* (repeat unit) | 85.00 °C
12 | *OC(C)COC(C)COC(=O)c1ccc(C(*)=O)cc1 (repeat unit) | 37.00 °C
13 | *CCCCOc1ccc(/C=C2\CC/C(=C\c3ccc(OCCCCOP(=O)(O*)OCC)c(OC)c3)C2=O)cc1OC (repeat unit) | 79.00 °C
14 | *CCC/C=C(/*)c1ccccc1 (repeat unit) | 0.00 °C
15 | *CC(COCC)O* (repeat unit) | -61.00 °C
16 | *Oc1ccc(S(=O)(=O)c2ccc(Oc3ccc(C(C)(C)c4ccc(*)cc4)cc3)cc2)cc1 (repeat unit) | 186.00 °C
17 | *Nc1ccc(NC(=O)c2ccc(P(=O)(c3ccccc3)c3ccc(C(*)=O)cc3)cc2)cc1 (repeat unit) | 252.00 °C
18 | *Oc1ccc(Oc2ccc(C(=O)c3cccc(NC(=O)c4cccc(C(=O)Nc5cccc(C(=O)c6ccc(*)cc6)c5)c4)c3)cc2)cc1 (repeat unit) | 202.00 °C
19 | *c1ccc(/C=C(\C#N)C(=O)NC2CCCCC2NC(=O)/C(C#N)=C/c2ccc(N(c3ccccc3)c3ccc(N(*)c4ccccc4)cc3)cc2)cc1 (repeat unit) | 239.00 °C
20 | *c1ccc(OCC2CCC(COc3ccc(-n4c(=O)c5cc6c(=O)n(*)c(=O)c6cc5c4=O)cc3)CC2)cc1 (repeat unit) | 306.70 °C
21 | *NC1CCC(CC2CCC(NC(=O)CCCCCCCCC(*)=O)CC2)CC1 (repeat unit) | 144.00 °C
22 | *Oc1ccc(CC(NC(=O)CCc2ccc(OC(=O)CCCC(*)=O)cc2)C(=O)OCC(C)C)cc1 (repeat unit) | 62.00 °C
23 | *Oc1cc(CCCCCCCC)cc(OC(=O)c2cccc(C(*)=O)c2)c1 (repeat unit) | 50.50 °C
24 | *Oc1ccc(CC(NC(=O)CCc2ccc(OC(=O)CCCC(*)=O)cc2)C(=O)OCCCCCCCC)cc1 (repeat unit) | 32.50 °C
25 | *CC(COC(F)(C(F)(F)F)C(F)(F)F)O* (repeat unit) | -43.00 °C
26 | *CCCCCCCCC(Cl)C(*)Cl (repeat unit) | -30.00 °C

Row | SMILES | glass transition temperature
27 | *Oc1ccccc1C(=O)OC(=O)c1ccccc1OC(=O)CCCC(*)=O (repeat unit) | 50.00 °C
28 | *CC(*)c1ccc(CCCCCCCCCCCC)cc1 (repeat unit) | -52.00 °C
29 | *CC(*)(C)C(=O)OCCc1ccc(/N=N/c2ccccc2)cc1 (repeat unit) | 80.00 °C
30 | *c1ccc(Oc2ccc(/C=C/c3ccc(Oc4ccc(-c5nnc(*)o5)cc4)c4ccccc34)cc2)cc1 (repeat unit) | 213.00 °C
31 | */C(C)=C(/*)[Si](C)(C)C (repeat unit) | 75.00 °C
32 | *Oc1ccccc1C(=O)OC(=O)c1ccccc1OC(=O)CCCCCCCC(*)=O (repeat unit) | 25.00 °C
33 | *c1cccc(C(=O)c2c(C)cc(C)c(N3C(=O)c4ccc(Oc5ccc6c(c5)C(=O)N(*)C6=O)cc4C3=O)c2C)c1 (repeat unit) | 287.00 °C
34 | *CCN(*)C(=O)CC(C)C (repeat unit) | 30.00 °C
35 | *CCCCOC(=O)Nc1ccc(C)c(NC(=O)OCCCCn2c3ccccc3c3cc(/C=C(\C#N)C(=O)OCCCCCCOC(=O)/C(C#N)=C/c4ccc5c(c4)c4ccccc4n5*)ccc32)c1 (repeat unit) | 117.00 °C
36 | *c1ccc(Oc2ccc(N3C(=O)c4ccc(Oc5ccc(-c6ccc(Oc7ccc8c(c7)C(=O)N(*)C8=O)cc6)cc5)cc4C3=O)cc2)cc1 (repeat unit) | 229.00 °C
37 | *OP(=O)(Oc1c(Cl)cccc1Cl)Oc1c(Cl)c(Cl)c(*)c(Cl)c1Cl (repeat unit) | 144.00 °C
38 | *c1ccc(-c2ccc(C(*)(C(F)(F)F)C(F)(F)F)cc2)cc1 (repeat unit) | 264.00 °C
39 | *Oc1ccc(OC(=O)c2cc(OCCCCOCC3CCCN3c3ccc([N+](=O)[O-])cc3)c(C(*)=O)cc2OCCCCOCC2CCCN2c2ccc([N+](=O)[O-])cc2)cc1 (repeat unit) | 68.00 °C
40 | *CCCCCCCCCOc1ccc(CCc2ccc(O*)cc2C)cc1 (repeat unit) | -1.10 °C
41 | *c1cc(Br)c(Oc2c(Br)cc(N3C(=O)c4ccc(-c5ccc6c(c5)C(=O)N(*)C6=O)cc4C3=O)cc2Br)c(Br)c1 (repeat unit) | 287.00 °C
42 | *O[Si](*)(C)CCc1cc(C(=O)Oc2ccc(OC)cc2)ccc1C(=O)Oc1ccc(OC)cc1 (repeat unit) | 111.00 °C
43 | *CCC1C(=O)N(c2ccc(N(C)C)cc2)C(=O)C1* (repeat unit) | 195.00 °C
44 | *CCCCOc1ccc(CCc2ccc(O*)cc2C)cc1 (repeat unit) | 24.90 °C
45 | *OP(=O)(Oc1c(Cl)cc(Cl)cc1Cl)Oc1c(Cl)c(Cl)c(*)c(Cl)c1Cl (repeat unit) | 127.00 °C
46 | *CC(OC)C1(C)C(=O)OC(=O)C1(*)C (repeat unit) | 260.00 °C
47 | *CC(*)C(=O)N1CCCCC1 (repeat unit) | 108.00 °C
48 | *CCCCOC(=O)COCC(=O)O* (repeat unit) | -23.00 °C
49 | *CCCCCCCCCCCCOc1ccc(C(C)Cc2ccc(-c3ccc(O*)cc3)cc2)cc1 (repeat unit) | 40.00 °C
50 | *OC(=O)C(NC(=O)CCCCC(=O)NC(C(=O)OC1COC2C(*)COC12)C(C)CC)C(C)CC (repeat unit) | 102.00 °C
51 | *C1C(=O)OC(=O)C1C1C2CC(C(=O)OCCOCC)C(C2)C1* (repeat unit) | 155.00 °C

Source: the PolyMetriX glass transition set
